Consider one compound from ChEMBL document CHEMBL5620362 (Eur J Med Chem, 2023).

In series [1] the test system is NCI-H23. The series is described as follows: Induction of apoptosis in human NCI-H23 cells assessed as necrotic cells at 10 uM incubated for 48 hrs by Annexin V-FITC/PI staining based flow cytometry (reference value: 0.78 %). The series is classed as functional. Background: In flow cytometry, cells or beads pass a laser one at a time.
Another series relates to NCI-H1373. The series is described as follows: Anticancer activity against human NCI-H1373 cells incubated for 72 hrs. The series is classed as functional, cell-based.
The test system of series [2] is HPAF-II. The series can be described thus: Induction of apoptosis in human HPAF-II cells assessed as necrotic cells at 0.1 uM incubated for 48 hrs by Annexin V-FITC/PI staining based flow cytometry (reference value: 8.09 %). Format: functional.
In series [3] the test system is HPAF-II. The series can be described thus: Antitumor activity against human HPAF-II cells xenografted in nude Balb/cA mouse assessed as tumor growth inhibition at 180 mg/kg, po qd measured for 12 days relative to control. Format: functional. Details: scale not given: the % may be the effect or the level left. To be noted: time 12 day. (In general: In xenograft studies the graft and the host belong to different species.)

In series [4] the test system is HPAF-II. The series can be described thus: Induction of apoptosis in human HPAF-II cells assessed as early apoptotic cells at 10 uM incubated for 48 hrs by Annexin V-FITC/PI staining based flow cytometry (reference value: 0.90 %). Format: functional.
Another series deals with HEK-293T. The series is described as follows: Cytotoxicity against HEK293T cells incubated for 72 hrs. The series is classed as toxicity, cell-based. The note with it: human.
The subject of the next series is EOL1. The series is described as follows: Anticancer activity against human EOL1 cells incubated for 72 hrs. Format: functional, cell-based.
For series [5], the system named is HPAF-II. The series is described as follows: Induction of apoptosis in human HPAF-II cells assessed as increase in cleaved caspase-3 level at 0.1 to 1 uM incubated for 48 hrs by Western blot analysis. The series is classed as functional, cell-based. The note with it: dose 0.1-1 µM. In general terms: In western blotting, separated proteins are transferred to a membrane and probed.

A short description of series [6]: Toxicity in nude Balb/cA mouse xenografted with human HPAF-II cells assessed as body weight loss at 15 mg/kg, ip qd measured for 12 days. The note with it: in vivo, 288 h, time 12 day. The series is classed as organism-based.
The nature of series [7]: MRT (infinity) in ICR mouse at 3 mg/kg, iv. The series is classed as ADME, organism-based. The note with it: in vivo.
Series [8] deals with NCI-H23. The series is described as follows: Induction of apoptosis in human NCI-H23 cells assessed as late apoptotic cells at 10 uM incubated for 48 hrs by Annexin V-FITC/PI staining based flow cytometry (reference value: 2.89 %). Format: functional.
The test system of series [9] is HPAF-II. The series is described as follows: Induction of apoptosis in human HPAF-II cells assessed as late apoptotic cells at 10 uM incubated for 48 hrs by Annexin V-FITC/PI staining based flow cytometry (reference value: 1.28 %). Format: functional.
Series [10] can be described thus: MRT (infinity) in ICR mouse at 10 mg/kg, po. Format: ADME, organism-based. To be noted: in vivo.
Series [11] relates to NCI-H23. The series is described as follows: Induction of apoptosis in human NCI-H23 cells assessed as viable cells at 0.1 uM incubated for 48 hrs by Annexin V-FITC/PI staining based flow cytometry (reference value: 92.16 %). The series is classed as functional. The note with it: read-out: Activity.
For series [12], the system named is HPAF-II. The series can be described thus: Anticancer activity against human HPAF-II cells incubated for 72 hrs. The series is classed as functional, cell-based.
Series [13] is described as follows: Half life in ICR mouse at 3 mg/kg, iv. Format: ADME, organism-based. The note with it: in vivo.
Series [14] is described as follows: Toxicity in nude Balb/cA mouse xenografted with human HPAF-II cells assessed as redness at injection site at 15 mg/kg, ip qd measured for 12 days. The series is classed as organism-based. The note with it: in vivo, 288 h, time 12 day.
The next series has as its system PANC-1. The series is described as follows: Anticancer activity against human PANC-1 cells incubated for 72 hrs. The series is classed as functional, cell-based.
Series [15] concerns NCI-H23. The series can be described thus: Induction of apoptosis in human NCI-H23 cells assessed as viable cells at 10 uM incubated for 48 hrs by Annexin V-FITC/PI staining based flow cytometry (reference value: 92.16 %). The note with it: read-out: Activity. Format: functional.
Series [16] can be described thus: AUC (infinity) in ICR mouse at 3 mg/kg, iv. Format: ADME, organism-based. To be noted: in vivo.

SMILES strings stand for the structures. Active and inactive are the calls of the source.

As usually defined, the MRT inf is the average time that molecules of a dose stay in the body. One may read the half-life as the time needed for the level to fall by half in the phase considered. For orientation: AUC(0-inf) means the area under the concentration-time curve extrapolated to infinity. For `C=C(C)[C@@H]1CC[C@]2(C(=O)NCCCN(C)C)CC[C@]3(C)[C@H](CC[C@@H]4[C@@]5(C)CC[C@H](O)C(C)(C)[C@@H]5CC[C@]43C)[C@@H]12`, the Activity is on record as 0.61% in the series on NCI-H23 [1]; 4.85% in the series with HPAF-II [2]; 49% in the series on HPAF-II [3]; 48.86% in the series with HPAF-II [4]; “Non-Toxic” in the series with HEK-293T; 19% in [6]. The Activity was 28.83% with NCI-H23 [8], 42.77% in the series with HPAF-II [9] and “Toxic” in [14]. Besides, the outcome with NCI-H1373, with EOL1, in the series with HPAF-II [5], in the series with HPAF-II [12] and in the series on PANC-1 was Active. For the same compound, the MRT inf is 5.22 h in series [7] and 16.6 h in [10]. The viability at 0.1 µM in the series with NCI-H23 [11] is 79.5%. Also, the half-life in series [13] is 4.5 h. For the same compound, the viability at 10 µM in the series on NCI-H23 [15] turned out to be 6.54%. The compound further yielded a total exposure AUC(0-inf) in [16] of 3050 ng·h/mL.
